Source: ChEMBL document CHEMBL1806475, “Phosphopeptides with improved cellular uptake properties as ligands for the polo-box domain of polo-like kinase 1” (Bioorg Med Chem Lett, 2011)
Where a SMILES comes first, the peptide text is derived from it.

Columns and labels:
[1] = system: HT-29; assay: Cellular uptake in human HT-29 cells at 25 uM after 60 mins by flow cytometry; format: ADME, cell-based; conditions: ht-29, 1 h
[2] = system: HT-29; assay: Cellular uptake in human HT-29 cell vesicular compartments at 25 uM after 60 mins using Hoechst H33342 dye by fluorescence microscopy analysis; format: ADME, cell-based; conditions: ht-29, 1 h
[3] = system: HeLa; assay: Cellular uptake in human HeLa cell vesicular compartments at 50 uM after 60 mins using Hoechst H33342 dye by fluorescence microscopy analysis; format: ADME, cell-based; conditions: 1 h
[4] = target: Serine/threonine-protein kinase PLK1 (Homo sapiens, UniProt P53350); assay: Binding affinity to human polo-box domain of PLK1 after 1 hr by fluorescence polarization-based assay
[5] = system: HeLa; assay: Cellular uptake in human HeLa cells at 25 uM after 60 mins by flow cytometry; format: ADME, cell-based; conditions: 1 h
[6] = system: MCF7; assay: Cellular uptake in human MCF7 cells at 25 uM after 60 mins by flow cytometry; format: ADME, cell-based; conditions: mcf7, 1 h
[7] = system: MCF7; assay: Cellular uptake in human MCF7 cell vesicular compartments at 50 uM after 60 mins using Hoechst H33342 dye by fluorescence microscopy analysis; format: ADME, cell-based; conditions: mcf7, 1 h
[8] = system: FaDu; assay: Cellular uptake in human FADU cells assessed per mg of protein; format: ADME, cell-based
[9] = system: HT-29; assay: Cellular uptake in human HT-29 cells assessed per mg of protein; format: ADME, cell-based
[10] = system: MCF7; assay: Toxicity in human MCF7 cells at up to 100 uM after 24 hrs; format: cell-based; conditions: mcf7, 24 h
[11] = system: HeLa; assay: Toxicity in human HeLa cells at up to 100 uM after 24 hrs; format: cell-based
[12] = system: HT-29; assay: Toxicity in human HT-29 cells at up to 100 uM after 24 hrs; format: cell-based; conditions: ht-29, 24 h
[13] = system: HT-29; assay: Cellular uptake in human HT-29 cells at 25 uM after 60 mins by flow cytometry relative to cellular uptake in human HeLa cells; format: ADME, cell-based; conditions: ht-29, 1 h
[14] = system: MCF7; assay: Cellular uptake in human MCF7 cells at 25 uM after 60 mins by flow cytometry relative to cellular uptake in human HeLa cells; format: ADME, cell-based; conditions: mcf7, 1 h
[15] = system: MCF7; assay: Cellular uptake in human MCF7 cell nucleus at 50 uM after 60 mins using Hoechst H33342 dye by fluorescence microscopy analysis; format: ADME, cell-based; conditions: mcf7, 1 h

Serine/threonine-protein kinase PLK1, sequence (P53350 whole entry, the tested form may be a part): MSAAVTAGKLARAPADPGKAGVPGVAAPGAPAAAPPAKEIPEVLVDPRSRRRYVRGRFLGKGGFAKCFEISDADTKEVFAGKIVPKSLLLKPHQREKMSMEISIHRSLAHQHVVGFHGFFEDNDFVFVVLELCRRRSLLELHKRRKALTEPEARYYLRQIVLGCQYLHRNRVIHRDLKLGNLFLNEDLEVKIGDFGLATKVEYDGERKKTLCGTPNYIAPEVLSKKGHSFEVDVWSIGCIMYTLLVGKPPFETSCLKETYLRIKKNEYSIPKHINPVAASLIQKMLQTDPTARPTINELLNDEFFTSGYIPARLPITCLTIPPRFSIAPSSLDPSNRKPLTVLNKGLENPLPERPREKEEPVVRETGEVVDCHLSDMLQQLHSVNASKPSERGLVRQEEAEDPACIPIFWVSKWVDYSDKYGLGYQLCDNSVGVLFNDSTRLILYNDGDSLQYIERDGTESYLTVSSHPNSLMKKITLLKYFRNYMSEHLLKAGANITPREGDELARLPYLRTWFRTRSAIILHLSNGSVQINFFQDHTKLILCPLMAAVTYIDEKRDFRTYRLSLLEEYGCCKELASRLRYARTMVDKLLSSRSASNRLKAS

Drug uptake [1]	Drug uptake [2]	Drug uptake [3]	Kd [4] [nM]	Drug uptake [5]	Drug uptake [6]	Drug uptake [7]	Drug uptake [8] [%ID]	Drug uptake [9] [%ID]	Drug uptake [13] [%]	Drug uptake [14] [%]	Drug uptake [15]	Structure (SMILES)	Activity [10]	Activity [11]	Activity [12]
Active	Not Active	Not Active	93	Not Active	Not Active	Not Active						CSCC[C@H](NC(=O)c1ccc2c(c1)C1(OC2=O)c2ccc(O)cc2Oc2cc(O)ccc21)C(=O)N[C@@H](CCC(N)=O)C(=O)N[C@@H](CO)C(=O)N[C@H](C(=O)N1CCC[C@H]1C(=O)N[C@@H](CC(C)C)C(=O)O)[C@@H](C)OP(=O)(O)O			
							< 1	< 1				CSCC[C@H](NC(=O)c1ccc([18F])cc1)C(=O)N[C@@H](CCC(N)=O)C(=O)N[C@@H](CO)C(=O)N[C@H](C(=O)N1CCC[C@H]1C(=O)N[C@@H](CC(C)C)C(=O)O)[C@@H](C)OP(=O)(O)O			
Active	Active	Active	256	Active	Active	Active			15	15		CC[C@H](C)[C@H](NC(=O)[C@H](CCCCN)NC(=O)[C@H](CC(N)=O)NC(=O)[C@H](CCCN=C(N)N)NC(=O)[C@H](Cc1ccccc1)NC(=O)[C@H](CCCCN)NC(=O)[C@H](CCCN=C(N)N)NC(=O)[C@H](CC(C)C)NC(=O)[C@H](CCCN=C(N)N)NC(=O)[C@H](CCCCN)NC(=O)[C@H](CCCN=C(N)N)NC(=O)[C@H](CC(C)C)NC(=O)CNC(=O)[C@H](CC(C)C)NC(=O)[C@@H]1CCCN1C(=O)[C@@H](NC(=O)[C@H](CO)NC(=O)[C@H](CCC(N)=O)NC(=O)[C@H](CCSC)NC(=O)c1ccc2c(c1)C1(OC2=O)c2ccc(O)cc2Oc2cc(O)ccc21)[C@@H](C)OP(=O)(O)O)C(=O)N[C@@H](CCCCN)C(=O)N[C@@H](CCC(=O)O)C(=O)N[C@@H](CCCCN)C(N)=O (HELM PEPTIDE1{[O=C1OC2(c3ccc(O)cc3Oc3cc(O)ccc32)c2cc(C(=O)[*:2])ccc21].M.Q.S.[C[C@@H](OP(=O)(O)O)[C@H](N[*:1])C(=O)[*:2]].P.L.G.L.R.K.R.L.R.K.F.R.N.K.I.K.E.K.[am]}$$$$V2.0)	Non-toxic	Non-toxic	Non-toxic
Active	Active	Active	326	Active	Active	Active			15	15	Active	CC[C@H](C)[C@H](NC(=O)[C@H](C)NC(=O)[C@@H](NC(=O)[C@H](CCC(N)=O)NC(=O)[C@@H]1CCCN1C(=O)[C@H](Cc1ccccc1)NC(=O)[C@@H](NC(=O)[C@H](Cc1cnc[nH]1)NC(=O)[C@H](Cc1ccccc1)NC(=O)[C@H](CCCCNC(=O)[C@H](C)NC(=O)[C@H](Cc1ccccc1)NC(=O)[C@H](CCCCN)NC(=O)[C@H](CCCNC(=N)N)NC(=O)[C@H](CCCCN)NC(=O)[C@H](CCCCN)NC(=O)[C@H](CCCCN)NC(=O)[C@@H]1CCCN1C(=O)[C@H](C)NC(=O)[C@H](CCCCN)NC(=O)[C@H](CCCNC(=N)N)NC(=O)[C@H](CCCCN)NC(=O)[C@@H](N)CCCCN)NC(=O)[C@H](CC(C)C)NC(=O)[C@@H]1CCCN1C(=O)[C@@H](NC(=O)[C@H](CO)NC(=O)[C@H](CCC(N)=O)NC(=O)[C@H](CCSC)NC(=O)c1ccc2c(c1)C1(OC2=O)c2ccc(O)cc2Oc2cc(O)ccc21)[C@@H](C)OP(=O)(O)O)[C@@H](C)O)[C@@H](C)O)C(=O)NCC(=O)N[C@H](C(=O)NCC(=O)N[C@@H](C)C(=O)N1CCC[C@H]1C(N)=O)C(C)C (HELM PEPTIDE1{[O=C1OC2(c3ccc(O)cc3Oc3cc(O)ccc32)c2cc(C(=O)[*:2])ccc21].M.Q.S.[C[C@@H](OP(=O)(O)O)[C@H](N[*:1])C(=O)[*:2]].P.L.K.F.H.T.F.P.Q.T.A.I.G.V.G.A.P.[am]}|PEPTIDE2{K.K.R.K.A.P.K.K.K.R.K.F.A}$PEPTIDE1,PEPTIDE2,8:R3-13:R2$$$V2.0)	Non-toxic	Non-toxic	Non-toxic
